The results in this text go back to the SangsterLogP compilation.

This data set can be described thus: method code SF-AS, from DOI: 10.2298/jsc0810967p. The note with it: pH 7.4.
Consider `Cc1cccc(Cn2cnc3cc(C)c(C)cc32)c1`, for which the logD (commonly lipophilicity at a set pH, counting ionised and neutral species) stood at 4.85.
Molecule `Cc1cc2ncn(Cc3cccc(F)c3)c2cc1C` had a log distribution coefficient (logD) of 4.5.
The result for `COc1cccc(Cn2cnc3cc(C)c(C)cc32)c1` reads 4.28.
The result for `Cc1cc2ncn(Cc3cccc(Cl)c3)c2cc1C` reads 5.05.
